± gives the expanded uncertainty stated by the source.
Columns and labels:
[1] = 83 kPa, Liquid; for speed of sound: Frequency=3 MHz, Single path-length method; for mass density: Vibrating tube method
[2] = molar heat capacity at constant pressure; details: 83 kPa, Liquid, DSC

## CCCCCCC(=O)OCC(COC(=O)CCCCCC)(COC(=O)CCCCCC)COC(=O)CCCCCC [pentaerythritol tetraheptanoate]
[1]; 278.15 K
  speed of sound: 1435 ± 3.2 m/s
  mass density: 989.09 ± 2.1 kg/m3
[1]; 283.15 K
  speed of sound: 1417.7 ± 3.2 m/s
  mass density: 985.27 ± 2.1 kg/m3
[1]; 288.15 K
  speed of sound: 1400.7 ± 3.2 m/s
  mass density: 981.48 ± 2.1 kg/m3
[1]; 293.15 K
  speed of sound: 1383.8 ± 3.2 m/s
  mass density: 977.69 ± 2.1 kg/m3
[1]; 298.15 K
  speed of sound: 1367 ± 3.2 m/s
  mass density: 973.91 ± 2.1 kg/m3
[1]; 303.15 K
  speed of sound: 1350.3 ± 3.2 m/s
  mass density: 970.14 ± 2.1 kg/m3
[1]; 308.15 K
  speed of sound: 1333.9 ± 3.2 m/s
  mass density: 966.38 ± 2.1 kg/m3
[1]; 313.15 K
  speed of sound: 1317.8 ± 3.2 m/s
  mass density: 962.62 ± 2.1 kg/m3
[1]; 318.15 K
  speed of sound: 1301.9 ± 3.2 m/s
  mass density: 958.87 ± 2.1 kg/m3
[1]; 323.15 K
  speed of sound: 1286.1 ± 3.2 m/s
  mass density: 955.13 ± 2.1 kg/m3
[1]; 328.15 K
  speed of sound: 1270.4 ± 3.2 m/s
  mass density: 951.39 ± 2.1 kg/m3
[1]; 333.15 K
  speed of sound: 1254.9 ± 3.2 m/s
  mass density: 947.66 ± 2.1 kg/m3
[1]; 338.15 K
  speed of sound: 1239.6 ± 3.2 m/s
  mass density: 943.92 ± 2.1 kg/m3
[1]; 343.15 K
  speed of sound: 1224.5 ± 3.2 m/s
  mass density: 940.2 ± 2.1 kg/m3
[2]; 293.14 K
  molar heat capacity at constant pressure: 1059.1 ± 49 J/K/mol
[2]; 294.14 K
  molar heat capacity at constant pressure: 1060.3 ± 49 J/K/mol
[2]; 295.14 K
  molar heat capacity at constant pressure: 1062 ± 49 J/K/mol
[2]; 296.14 K
  molar heat capacity at constant pressure: 1063.8 ± 49 J/K/mol
[2]; 297.14 K
  molar heat capacity at constant pressure: 1065.6 ± 49 J/K/mol
[2]; 298.14 K
  molar heat capacity at constant pressure: 1066.7 ± 49 J/K/mol
[2]; 299.14 K
  molar heat capacity at constant pressure: 1068.5 ± 49 J/K/mol
[2]; 300.14 K
  molar heat capacity at constant pressure: 1070.2 ± 49 J/K/mol
[2]; 301.14 K
  molar heat capacity at constant pressure: 1071.4 ± 49 J/K/mol
[2]; 302.14 K
  molar heat capacity at constant pressure: 1073.2 ± 49 J/K/mol
[2]; 303.14 K
  molar heat capacity at constant pressure: 1074.9 ± 49 J/K/mol
[2]; 304.14 K
  molar heat capacity at constant pressure: 1076.1 ± 49 J/K/mol
[2]; 305.14 K
  molar heat capacity at constant pressure: 1077.8 ± 49 J/K/mol
[2]; 306.14 K
  molar heat capacity at constant pressure: 1079 ± 49 J/K/mol
[2]; 307.14 K
  molar heat capacity at constant pressure: 1080.8 ± 49 J/K/mol
[2]; 308.14 K
  molar heat capacity at constant pressure: 1082.5 ± 49 J/K/mol
[2]; 309.14 K
  molar heat capacity at constant pressure: 1083.7 ± 49 J/K/mol
[2]; 310.14 K
  molar heat capacity at constant pressure: 1085.4 ± 49 J/K/mol
[2]; 311.14 K
  molar heat capacity at constant pressure: 1086.6 ± 49 J/K/mol
[2]; 312.14 K
  molar heat capacity at constant pressure: 1088.4 ± 49 J/K/mol
[2]; 313.14 K
  molar heat capacity at constant pressure: 1090.1 ± 49 J/K/mol
[2]; 314.14 K
  molar heat capacity at constant pressure: 1091.9 ± 49 J/K/mol
[2]; 315.14 K
  molar heat capacity at constant pressure: 1093 ± 49 J/K/mol
[2]; 316.14 K
  molar heat capacity at constant pressure: 1094.8 ± 49 J/K/mol
[2]; 317.14 K
  molar heat capacity at constant pressure: 1096.5 ± 49 J/K/mol
[2]; 318.14 K
  molar heat capacity at constant pressure: 1098.3 ± 49 J/K/mol
[2]; 319.14 K
  molar heat capacity at constant pressure: 1099.5 ± 49 J/K/mol
[2]; 320.14 K
  molar heat capacity at constant pressure: 1101.2 ± 49 J/K/mol
[2]; 321.14 K
  molar heat capacity at constant pressure: 1103 ± 49 J/K/mol
[2]; 322.13 K
  molar heat capacity at constant pressure: 1104.1 ± 49 J/K/mol
[2]; 323.14 K
  molar heat capacity at constant pressure: 1105.9 ± 49 J/K/mol
[2]; 324.14 K
  molar heat capacity at constant pressure: 1107.7 ± 49 J/K/mol
[2]; 325.14 K
  molar heat capacity at constant pressure: 1108.8 ± 49 J/K/mol
[2]; 326.14 K
  molar heat capacity at constant pressure: 1110.6 ± 49 J/K/mol
[2]; 327.14 K
  molar heat capacity at constant pressure: 1112.3 ± 49 J/K/mol
[2]; 328.14 K
  molar heat capacity at constant pressure: 1114.1 ± 49 J/K/mol
[2]; 329.14 K
  molar heat capacity at constant pressure: 1115.8 ± 49 J/K/mol
[2]; 330.14 K
  molar heat capacity at constant pressure: 1117 ± 49 J/K/mol
[2]; 331.14 K
  molar heat capacity at constant pressure: 1118.8 ± 49 J/K/mol
[2]; 332.14 K
  molar heat capacity at constant pressure: 1120.5 ± 49 J/K/mol
[2]; 333.14 K
  molar heat capacity at constant pressure: 1121.7 ± 49 J/K/mol
[2]; 334.13 K
  molar heat capacity at constant pressure: 1123.4 ± 49 J/K/mol
[2]; 335.14 K
  molar heat capacity at constant pressure: 1125.2 ± 49 J/K/mol
[2]; 336.14 K
  molar heat capacity at constant pressure: 1127 ± 50 J/K/mol
[2]; 337.14 K
  molar heat capacity at constant pressure: 1128.1 ± 49 J/K/mol
[2]; 338.14 K
  molar heat capacity at constant pressure: 1129.9 ± 49 J/K/mol
[2]; 339.14 K
  molar heat capacity at constant pressure: 1131.6 ± 49 J/K/mol
[2]; 340.14 K
  molar heat capacity at constant pressure: 1133.4 ± 49 J/K/mol
[2]; 341.13 K
  molar heat capacity at constant pressure: 1134.6 ± 49 J/K/mol
[2]; 342.14 K
  molar heat capacity at constant pressure: 1136.3 ± 49 J/K/mol
[2]; 343.14 K
  molar heat capacity at constant pressure: 1138.1 ± 49 J/K/mol
[2]; 344.14 K
  molar heat capacity at constant pressure: 1139.8 ± 49 J/K/mol
[2]; 345.13 K
  molar heat capacity at constant pressure: 1141.6 ± 49 J/K/mol
[2]; 346.14 K
  molar heat capacity at constant pressure: 1143.3 ± 50 J/K/mol
[2]; 347.14 K
  molar heat capacity at constant pressure: 1145.1 ± 50 J/K/mol
[2]; 348.14 K
  molar heat capacity at constant pressure: 1146.3 ± 49 J/K/mol
[2]; 349.14 K
  molar heat capacity at constant pressure: 1148 ± 50 J/K/mol
[2]; 350.14 K
  molar heat capacity at constant pressure: 1149.8 ± 50 J/K/mol
[2]; 351.14 K
  molar heat capacity at constant pressure: 1151.5 ± 50 J/K/mol
[2]; 352.14 K
  molar heat capacity at constant pressure: 1153.3 ± 50 J/K/mol
[2]; 353.14 K
  molar heat capacity at constant pressure: 1154.4 ± 50 J/K/mol
[2]; 354.14 K
  molar heat capacity at constant pressure: 1156.2 ± 50 J/K/mol
[2]; 355.14 K
  molar heat capacity at constant pressure: 1158 ± 50 J/K/mol
[2]; 356.14 K
  molar heat capacity at constant pressure: 1159.7 ± 50 J/K/mol
[2]; 357.14 K
  molar heat capacity at constant pressure: 1160.9 ± 50 J/K/mol
[2]; 358.14 K
  molar heat capacity at constant pressure: 1162.6 ± 50 J/K/mol
[2]; 359.14 K
  molar heat capacity at constant pressure: 1164.4 ± 50 J/K/mol
[2]; 360.14 K
  molar heat capacity at constant pressure: 1166.1 ± 50 J/K/mol
[2]; 361.14 K
  molar heat capacity at constant pressure: 1167.9 ± 50 J/K/mol
[2]; 362.14 K
  molar heat capacity at constant pressure: 1169.1 ± 50 J/K/mol
[2]; 363.14 K
  molar heat capacity at constant pressure: 1170.8 ± 50 J/K/mol
[2]; 364.14 K
  molar heat capacity at constant pressure: 1172.6 ± 50 J/K/mol
[2]; 365.14 K
  molar heat capacity at constant pressure: 1174.3 ± 50 J/K/mol
[2]; 366.14 K
  molar heat capacity at constant pressure: 1176.1 ± 50 J/K/mol
[2]; 367.14 K
  molar heat capacity at constant pressure: 1177.3 ± 50 J/K/mol
[2]; 368.14 K
  molar heat capacity at constant pressure: 1179 ± 50 J/K/mol
[2]; 369.14 K
  molar heat capacity at constant pressure: 1180.8 ± 50 J/K/mol
[2]; 370.14 K
  molar heat capacity at constant pressure: 1182.5 ± 50 J/K/mol
[2]; 371.14 K
  molar heat capacity at constant pressure: 1184.3 ± 50 J/K/mol
[2]; 372.14 K
  molar heat capacity at constant pressure: 1185.4 ± 50 J/K/mol
[2]; 373.14 K
  molar heat capacity at constant pressure: 1187.2 ± 50 J/K/mol
[2]; 374.14 K
  molar heat capacity at constant pressure: 1188.9 ± 50 J/K/mol
[2]; 375.14 K
  molar heat capacity at constant pressure: 1190.7 ± 51 J/K/mol
[2]; 376.14 K
  molar heat capacity at constant pressure: 1192.5 ± 51 J/K/mol
[2]; 378.14 K
  molar heat capacity at constant pressure: 1196 ± 51 J/K/mol
[2]; 379.14 K
  molar heat capacity at constant pressure: 1197.7 ± 51 J/K/mol
[2]; 380.14 K
  molar heat capacity at constant pressure: 1198.9 ± 51 J/K/mol
[2]; 381.14 K
  molar heat capacity at constant pressure: 1200.6 ± 51 J/K/mol
[2]; 382.14 K
  molar heat capacity at constant pressure: 1202.4 ± 51 J/K/mol
[2]; 383.14 K
  molar heat capacity at constant pressure: 1204.2 ± 51 J/K/mol
[2]; 384.14 K
  molar heat capacity at constant pressure: 1205.9 ± 51 J/K/mol
[2]; 385.14 K
  molar heat capacity at constant pressure: 1207.7 ± 51 J/K/mol
[2]; 386.14 K
  molar heat capacity at constant pressure: 1209.4 ± 51 J/K/mol
[2]; 387.14 K
  molar heat capacity at constant pressure: 1211.2 ± 51 J/K/mol
[2]; 388.14 K
  molar heat capacity at constant pressure: 1212.9 ± 51 J/K/mol
[2]; 389.14 K
  molar heat capacity at constant pressure: 1214.1 ± 51 J/K/mol
[2]; 390.14 K
  molar heat capacity at constant pressure: 1215.9 ± 51 J/K/mol
[2]; 391.14 K
  molar heat capacity at constant pressure: 1217.6 ± 51 J/K/mol
[2]; 392.14 K
  molar heat capacity at constant pressure: 1219.4 ± 51 J/K/mol
[2]; 393.14 K
  molar heat capacity at constant pressure: 1220.5 ± 51 J/K/mol
[2]; 394.14 K
  molar heat capacity at constant pressure: 1222.3 ± 51 J/K/mol
[2]; 395.14 K
  molar heat capacity at constant pressure: 1224 ± 51 J/K/mol
[2]; 396.14 K
  molar heat capacity at constant pressure: 1225.2 ± 51 J/K/mol
[2]; 397.14 K
  molar heat capacity at constant pressure: 1227 ± 51 J/K/mol
[2]; 398.14 K
  molar heat capacity at constant pressure: 1228.7 ± 51 J/K/mol
[2]; 399.14 K
  molar heat capacity at constant pressure: 1230.5 ± 52 J/K/mol
[2]; 400.14 K
  molar heat capacity at constant pressure: 1232.2 ± 52 J/K/mol
[2]; 401.14 K
  molar heat capacity at constant pressure: 1234 ± 52 J/K/mol
[2]; 402.14 K
  molar heat capacity at constant pressure: 1235.7 ± 52 J/K/mol
[2]; 403.14 K
  molar heat capacity at constant pressure: 1236.9 ± 52 J/K/mol
[2]; 404.14 K
  molar heat capacity at constant pressure: 1238.7 ± 52 J/K/mol
[2]; 405.14 K
  molar heat capacity at constant pressure: 1240.4 ± 52 J/K/mol
[2]; 406.14 K
  molar heat capacity at constant pressure: 1242.2 ± 52 J/K/mol
[2]; 407.14 K
  molar heat capacity at constant pressure: 1243.9 ± 52 J/K/mol
[2]; 408.14 K
  molar heat capacity at constant pressure: 1245.7 ± 52 J/K/mol
[2]; 409.14 K
  molar heat capacity at constant pressure: 1247.4 ± 52 J/K/mol
[2]; 410.14 K
  molar heat capacity at constant pressure: 1248.6 ± 52 J/K/mol
[2]; 411.14 K
  molar heat capacity at constant pressure: 1250.4 ± 53 J/K/mol
[2]; 412.13 K
  molar heat capacity at constant pressure: 1252.1 ± 53 J/K/mol
[2]; 413.14 K
  molar heat capacity at constant pressure: 1253.9 ± 53 J/K/mol
[2]; 414.13 K
  molar heat capacity at constant pressure: 1255.6 ± 53 J/K/mol
[2]; 415.14 K
  molar heat capacity at constant pressure: 1257.4 ± 53 J/K/mol
[2]; 416.14 K
  molar heat capacity at constant pressure: 1258.5 ± 53 J/K/mol
[2]; 417.14 K
  molar heat capacity at constant pressure: 1260.3 ± 53 J/K/mol
